From US20250257061A1, “COMPOSITIONS AND METHODS FOR TREATING CANCER AND REDUCING WNT MEDIATED EFFECTS” (StemSynergy Therapeutics, Inc., priority 2024, published 2025)
Where two headings read alike, the source gives them in different places.

Columns and labels:
[1] = test system: Wnt reporter (TCF/LEF1 promoter); assay: HEK STF293 Wnt reporter (TOPFlash) luciferase assay, Steady Glo normalised to Cell Titer; format: cell-based, human
Method: All compounds were tested using the human cell line HEK STF293. This cell line carries a Wnt reporter (TCF/LEF1 promoter), which drives expression of the firefly luciferase protein. The level of Wnt activity is directly correlated with the level of luciferase activity (determined using a simple assay). Compounds that inhibit Wnt signaling by reducing luciferase activity in these two cell lines are further tested biochemically. […] Compounds were further tested in a Viability assay using Wnt-dependent HCT116 cell line. Compounds were prepared as 10 mM stocks for each compound in DMSO. Dilutions were prepared in a 96-well plate in DMSO. The stock dilutions are as follows: 10 mM, 1 mM, 100 μM, 10 μM, 100 nM, and 10 nM. Plates were sealed and stored at −20° C. […] On the first day, Wnt3a-conditioned media (1:1) were added along with diluted compounds (1:100). […] The final concentrations should therefore be 100 μM, 10 μM, 1 μM, 100 nM, 10 nM, and 1 nM. On the second day, the media was removed and 75 μL of Passive Lysis Buffer (Promega) is added to each well. The plate was shaken at 130 rpm for 15 minutes. For the Steady Glo assay, 45 μL of the lysis was removed and added to a white 96-well plate containing 45 μL/well of Steady Glo solution (Promega). For the Cell Titer assay, 25 μL of the lysis was transferred to a white 96-well plate containing 25 μL/well of Cell Titer solution (Promega). Both Steady Glo and Cell Titer assays were read with a luminescence plate reader. When determining EC50, the Steady Glo values were divided by the Cell Titer values to normalize for cell number. All compounds were tested using the human cell line HEK STF293. This cell line carries a Wnt reporter (TCF/LEF1 promoter), which drives expression of the firefly luciferase protein. The level of Wnt activity is directly correlated with the level of luciferase activity (determined using a simple assay). Compounds that inhibit Wnt signaling by reducing luciferase activity in these two cell lines are further tested biochemically. […] Compounds were further tested in a Viability assay using Wnt-dependent HCT116 cell line. Compounds were prepared as 10 mM stocks for each compound in DMSO. Dilutions were prepared in a 96-well plate in DMSO. The stock dilutions are as follows: 10 mM, 1 mM, 100 μM, 10 μM, 100 nM, and 10 nM. Plates were sealed and stored at −20° C. […] On the first day, Wnt3a-conditioned media (1:1) were added along with diluted compounds (1:100). […] The final concentrations should therefore be 100 μM, 10 μM, 1 μM, 100 nM, 10 nM, and 1 nM. On the second day, the media was removed and 75 μL of Passive Lysis Buffer (Promega) is added to each well. The plate was shaken at 130 rpm for 15 minutes. For the Steady Glo assay, 45 μL of the lysis was removed and added to a white 96-well plate containing 45 μL/well of Steady Glo solution (Promega). For the Cell Titer assay, 25 μL of the lysis was transferred to a white 96-well plate containing 25 μL/well of Cell Titer solution (Promega). Both Steady Glo and Cell Titer assays were read with a luminescence plate reader. When determining EC50, the Steady Glo values were divided by the Cell Titer values to normalize for cell number. All compounds were tested using the human cell line HEK STF293. This cell line carries a Wnt reporter (TCF/LEF1 promoter), which drives expression of the firefly luciferase protein. The level of Wnt activity is directly correlated with the level of luciferase activity (determined using a simple assay). Compounds that inhibit Wnt signaling by reducing luciferase activity in these two cell lines are further tested biochemically. […] Compounds were further tested in a Viability assay using Wnt-dependent HCT116 cell line. Compounds were prepared as 10 mM stocks for each compound in DMSO. Dilutions were prepared in a 96-well plate in DMSO. The stock dilutions are as follows: 10 mM, 1 mM, 100 μM, 10 μM, 100 nM, and 10 nM. Plates were sealed and stored at −20° C. […]

[2] = test system: Wnt-dependent HCT116 cell line; assay: Viability assay using Wnt-dependent HCT116 cell line (Cell Titer Glo); format: cell-based
Method: All compounds were tested using the human cell line HEK STF293. This cell line carries a Wnt reporter (TCF/LEF1 promoter), which drives expression of the firefly luciferase protein. The level of Wnt activity is directly correlated with the level of luciferase activity (determined using a simple assay). Compounds that inhibit Wnt signaling by reducing luciferase activity in these two cell lines are further tested biochemically. […] Compounds were further tested in a Viability assay using Wnt-dependent HCT116 cell line. HEK293 cells were seeded in a 6-well plate at approximately 8.0×10^5 cells (2 mL per well). On the first day, Wnt3a-conditioned media (1:1) and compounds (1:100) were added to the plated cells. The final concentrations of compounds were 1 μM, 500 nM, and 100 nM. Vehicle (DMSO) and a Wnt3a-conditioned media plus Vehicle samples were also prepared as controls. Lysates were collected (with non-denaturing lysis buffer) after 24 hours incubation, and protein concentrations determined by Bradford Assay. Immunoblotting with an anti-beta-catenin antibody (equivalent amounts of protein/lane for each condition) were subsequently performed to determine beta-catenin levels. HCT116 cells were seeded at 2,500 cells/well in a 96-well dish (Volume: 100 μL/well). On the second day, the 10 mM stock solution of each test compound was thawed at room temperature. Dilutions of the test compound were prepared in DMSO in a V-bottom 96-well plate. The stock compound solution, DMSO-diluted compound solutions, and DMSO were further diluted 500-fold in cell culture media, and 100 μL of the compound- or DMSO-containing cell culture media was added to each well of the cells. […] The final DMSO concentration was 0.1% in all wells. On the fifth day, 150 μL of media was removed from each well. 50 μL/well Cell Titer Glo reagent (Promega) was added to each well. The plate was shaken at 130 rpm for 15 minutes at room temperature, and the cell viability was determined using a luminescence plate reader. All compounds were tested using the human cell line HEK STF293. This cell line carries a Wnt reporter (TCF/LEF1 promoter), which drives expression of the firefly luciferase protein. The level of Wnt activity is directly correlated with the level of luciferase activity (determined using a simple assay). Compounds that inhibit Wnt signaling by reducing luciferase activity in these two cell lines are further tested biochemically. […] Compounds were further tested in a Viability assay using Wnt-dependent HCT116 cell line. HEK293 cells were seeded in a 6-well plate at approximately 8.0×10^5 cells (2 mL per well). On the first day, Wnt3a-conditioned media (1:1) and compounds (1:100) were added to the plated cells. The final concentrations of compounds were 1 μM, 500 nM, and 100 nM. Vehicle (DMSO) and a Wnt3a-conditioned media plus Vehicle samples were also prepared as controls. Lysates were collected (with non-denaturing lysis buffer) after 24 hours incubation, and protein concentrations determined by Bradford Assay. Immunoblotting with an anti-beta-catenin antibody (equivalent amounts of protein/lane for each condition) were subsequently performed to determine beta-catenin levels. HCT116 cells were seeded at 2,500 cells/well in a 96-well dish (Volume: 100 μL/well). On the second day, the 10 mM stock solution of each test compound was thawed at room temperature. Dilutions of the test compound were prepared in DMSO in a V-bottom 96-well plate. The stock compound solution, DMSO-diluted compound solutions, and DMSO were further diluted 500-fold in cell culture media, and 100 μL of the compound- or DMSO-containing cell culture media was added to each well of the cells. […] The final DMSO concentration was 0.1% in all wells. On the fifth day, 150 μL of media was removed from each well. 50 μL/well Cell Titer Glo reagent (Promega) was added to each well. The plate was shaken at 130 rpm for 15 minutes at room temperature, and the cell viability was determined using a luminescence plate reader. […]

[3] = Examples for Formulae (IV), (V), (VI), and (VII), HEK STF293 cells, Wnt3a-conditioned media, read-out: TOPFlash IC50 category
[4] = Examples for Formulae (IV), (V), (VI), and (VII), HCT116 cells, read-out: Viability IC50 category
[5] = Homo sapiens, STF/293, Examples for Formulae (IV), (V), (VI), and (VII), HEK STF293 cells, Wnt3a-conditioned media, read-out: TOPFlash IC50 category
[6] = Homo sapiens, HCT-116, Examples for Formulae (IV), (V), (VI), and (VII), HCT116 cells, read-out: Viability IC50 category
[7] = Homo sapiens, STF/293, Examples for Formulae (VIII), (IX), and (X), HEK STF293 cells, Wnt3a-conditioned media, read-out: TOPFlash IC50 category
[8] = Homo sapiens, HCT-116, Examples for Formulae (VIII), (IX), and (X), HCT116 cells, read-out: Viability IC50 category
[9] = Homo sapiens, STF/293, read-out: TOPFlash IC50 category
[10] = Homo sapiens, HCT-116, read-out: Viability IC50 category

| IC50 [2, 4] [nM] | IC50 [2, 6] [nM] | SMILES | IC50 [1, 3] [nM] | IC50 [1, 5] [nM] | further results |
| --- | --- | --- | --- | --- | --- |
|  | 500 to 1000 | Cc1nc(N(C)S(=O)(=O)c2cccc(Cl)c2)oc1C(=O)Nc1nc(-c2ccccn2)cs1 [Example 51] |  | 500 to 1000 |  |
| < 200 |  | CN(c1nc(-c2ccc(F)cc2)c(C(=O)Nc2nc(-c3ccccn3)cs2)o1)S(=O)(=O)c1ccc(C(F)(F)F)cc1 [Example 61] | < 200 |  |  |
| 200 to 500 |  | Cc1nc(N(C)S(=O)(=O)c2ccc(C(F)(F)F)cc2)oc1C(=O)Nc1nc(-c2ccccn2)cs1 [Example 50] | 200 to 500 |  |  |
|  | < 200 | Cc1nc(-c2ccc(F)cc2)c(C(=O)Nc2nc(-c3ccccn3)cs2)o1 [Example 8] |  | < 200 |  |
|  | < 200 | CCc1nc(-c2ccc(F)cc2)c(C(=O)Nc2nc(-c3ccccn3)cs2)o1 [Example 13] |  | < 200 |  |
| 200 to 500 |  | Cc1nc(-c2ccc(C#N)cc2)c(C(=O)Nc2nc(-c3ccccn3)cs2)o1 [Example 30] | < 200 |  |  |

Further lines, the molecule ahead of its results:

| SMILES | IC50 [2, 4] [nM] | IC50 [2, 6] [nM] | IC50 [1, 3] [nM] | IC50 [1, 5] [nM] | further results |
| --- | --- | --- | --- | --- | --- |
| CS(=O)(=O)c1ccccc1-c1ncoc1C(=O)Nc1nc(-c2ccccn2)cs1 [Example 44] | 500 to 1000 |  | 1000 to 10000 |  |  |
| CN1CCN(Cc2nc(-c3ccc(F)cc3)c(C(=O)Nc3nc(-c4ccccn4)cs3)o2)CC1 [Example 71] |  | 200 to 500 |  | 200 to 500 |  |
| O=C(Nc1nc(-c2ccccn2)cs1)c1cccnc1-c1ccc(F)cc1 [Example 12] |  |  |  |  | IC50 [1, 7]: 200 to 500 nM; IC50 [2, 8]: 500 to 1000 nM |
| CS(=O)(=O)c1ccc(-n2nccc2C(=O)Nc2nc(-c3ccccn3)co2)cc1 [Example 1] |  |  |  |  | IC50 [1, 7]: 200 to 500 nM; IC50 [2, 8]: < 200 nM |
| COc1ccccc1-c1noc(C)c1C(=O)Nc1nc(-c2ccccn2)cs1 [Example 21] |  |  |  |  | IC50 [1, 9]: 1000 to 10000 nM; IC50 [2, 10]: 1000 to 10000 nM |
| O=C(Nc1nc(-c2ccccn2)cs1)c1ccc(=O)n(Cc2ccc(F)cc2)c1 [Example 4] |  |  |  |  | IC50 [1, 7]: 500 to 1000 nM; IC50 [2, 8]: 500 to 1000 nM |
| Cc1onc(-c2ccccc2)c1C(=O)Nc1nc(-c2ccccn2)cs1 [Example 27] |  |  |  |  | IC50 [1, 9]: 200 to 500 nM; IC50 [2, 10]: 200 to 500 nM |
